Test results reported in patent US20260137692A1, “METHODS AND COMPOSITIONS FOR TREATING AND MANAGING ALZHEIMER'S DISEASE” (PHARMATROPHIX, INC., priority 2024, published 2026).

Tested on: patients with mild to moderate Alzheimer's Disease
Assay: Phase IIa trial: ADAS-Cog
Assay type: in vivo, human
Conditions: ITT
Protocol: Exploratory outcome evaluations involved the assessment of cognitive and clinical function (Table 4). […] Items from the Neurological Testing Battery (NTB), together with the ADAS-Cog 13, Spatial Navigation Test (AMUNET) were performed at Baseline, Week 12 and Week 26 (Visits 2, 4 and 5). While the MMSE was used primarily as a screening and baseline disease staging tool, its repeated administration at Week 26 provided an additional exploratory cognitive outcome measure. The Geriatric Depression Scale (GDS) was assessed at each Visit (Screening, Baseline, Week 4, 12, 26: Visits 1-5) and the Clinical Global Impression test (CGI) with Severity was assessed at Screening (Visit 1) and then the Improvement was subsequently assessed at Weeks 12 and 26 (Visits 4 and 5). For each test, whether categorical or numeric, all raw scores were considered interval in nature. The change from Screening (Week −8) or Baseline (Week 0) was therefore be derived for each patient. Actual values at each Visit and Changes from Screening/Baseline were summarized.
Alzheimer's Disease Assessment Scale-13 items (total score=85) is used as a parameter for exploratory outcome analysis. ADAS-cog is a psychometric instrument designed to evaluate the severity of cognitive and non-cognitive behavioral dysfunctions characteristic of people with AD. The cognitive portion assesses memory, language and praxis functions. Most items are rated on a scale of 0 to 5, where 0 indicates no impairment and 1 to 5 indicates very mild (1), mild (2), moderate (3), moderately severe (4) or severe impairment (5) respectively. Other items are rated on the presence or absence of a characteristic number of errors or severity of errors. The total scores from the ADAS-cog sub-scales range from 0 (no impairment) to 85 (errors in all sub-tests).
A positive (i.e., increasing) change of the score indicates cognitive worsening.
ADAS-Cog was assessed at Visits 2, 4 and 5, as well as at the early discontinuation Visit, if applicable.

CC[C@H](C)[C@H](N)C(=O)NCCN1CCOCC1 [LM11A-31-BHS, Tris[(2S,3S)-2-amino-3-methyl-N-(2-morpholinoethyl)pentanamide]tetra(monohydrogensulfate), monosulfate]
progression compared to placebo in the LS mean ADAS-cog-13 score, increased by (200 mg group, 26-week treatment period, not statistically significant): 7.1% | ADAS-cog-6 score progression compared to placebo, increased by (200 mg group, 26 weeks): 7.1% | progression compared to placebo of the LS mean ADAS-cog-11 score, decreased by (200 mg group, 26 weeks): 9.8% | progression compared to placebo in the LS mean ADAS-cog-13 score, decreased by (400 mg group, 26-week treatment period, not statistically significant): 35.3% | ADAS-cog-6 score progression compared to placebo, decreased by (400 mg group, 26 weeks): 31.4% | progression compared to placebo of the LS mean ADAS-cog-11 score, decreased by (400 mg group, 26 weeks): 42.7%
